Patent US20110086886A2, “INSECTICIDAL ISOXAZOLINES” (Bayer CropScience AG, priority 2006, published 2011)

Assays:
Spodoptera litura larvae = test: Test for Spodoptera litura larvae (leaf dip); assay type: in vivo; conditions: effective component concentration of 500 ppm, 3rd-instar larvae on dipped sweet potato leaves, after 7 days; for pest or weed control at 500 ppm: foliar, 168 h, read-out: insecticidal ratio
Method: (§1) In order to obtain a preparation of a proper active compound, 1 part by weight of an active compound was mixed with the stated amounts of solvent and emulsifier and the mixture was diluted to a specified concentration with water.
The leaves of sweat potatoes were dipped in the test solution diluted to a specified concentration with water. After these leaves were dried in air to remove the chemical solution, they were placed in a Petri dish of 9 cm in diameter, in which 10 Spodoptera litura larvae of the 3rd-instar were set free. The Petri dish was placed in a thermostatic chamber kept at 25° C. and the leaves of sweat potatoes were added after 2 days and 4 days, to examine the number of dead larvae after 7 days, thereby calculating the insecticidal ratio of the chemical solution.
In this test, an average of the results in two Petri dishes in one section was calculated.

Aulacophora femoralis = test: Test for Aulacophora femoralis (spray test); assay type: in vivo; conditions: effective component concentration of 500 ppm; 2nd-instar, dipped cucumber leaves; after 7 days
Method: as §1
The leaves of cucumbers were dipped in the aqueous solution diluted to a specified concentration with water. After the chemical solution was dried in air, these leaves were placed in a plastic cup, in which sterilized black soil was placed. 5 Aulacophora femoralis of the 2nd-instar were set free in the soil, to examine the number of dead insects after 7 days, thereby calculating the insecticidal ratio of the chemical solution.

Compound	insecticidal ratio (Spodoptera litura larvae) [%]	insecticidal ratio (Aulacophora femoralis) [%]	pest or weed control at 500 ppm (Spodoptera litura larvae) [%]
1-(4-{5-[3,5-bis(trifluoromethyl)phenyl]-5-(trifluoromethyl-4,5-dihydroisoxazol-3-yl}-2-nitrophenyl)-2H-tetrazole [Compound 178]	100	–	–
O=[N+]([O-])c1cc(C2=NOC(c3cccc(Cl)c3)(C(F)(F)F)C2)ccc1-n1cncn1 (racemic) [Compound 90]	100	100	–
FC(F)(F)C1(c2cc(Cl)cc(Cl)c2)CC(c2ccc(-n3cncn3)cc2)=NO1 (racemic) [Compound 91]	100	100	–
Fc1cc(C2=NOC(c3cc(Cl)cc(Cl)c3)(C(F)(F)F)C2)ccc1-n1cncn1 (racemic) [Compound 93]	100	–	–
FC(F)(F)C1(c2cc(Cl)cc(Cl)c2)CC(c2ccc(-n3cncn3)c(Cl)c2)=NO1 (racemic) [Compound 94]	100	100	–
FC(F)(F)C1(c2cc(Cl)cc(Cl)c2)CC(c2ccc(-n3cncn3)cc2Cl)=NO1 (racemic) [Compound 96]	100	–	–
FC(F)(F)C1(c2cc(Cl)cc(Cl)c2)CC(c2ccc(-n3cncn3)c(Br)c2)=NO1 (racemic) [Compound 97]	100	100	–
FC(F)(F)C1(c2cc(Cl)cc(Cl)c2)CC(c2ccc(-n3cncn3)c(I)c2)=NO1 (racemic) [Compound 98]	100	100	–
Cc1cc(C2=NOC(c3cc(Cl)cc(Cl)c3)(C(F)(F)F)C2)ccc1-n1cncn1 (racemic) [Compound 99]	100	100	–
FC(F)(F)c1cc(C2=NOC(c3cc(Cl)cc(Cl)c3)(C(F)(F)F)C2)ccc1-n1cncn1 (racemic) [Compound 100]	100	100	–
COc1cc(C2=NOC(c3cc(Cl)cc(Cl)c3)(C(F)(F)F)C2)ccc1-n1cncn1 (racemic) [Compound 103]	100	100	–
CCC(=O)Nc1cc(C2=NOC(c3cc(Cl)cc(Cl)c3)(C(F)(F)F)C2)ccc1-n1cncn1 (racemic) [Compound 107]	100	100	–
COC(=O)Nc1cc(C2=NOC(c3cc(Cl)cc(Cl)c3)(C(F)(F)F)C2)ccc1-n1cncn1 (racemic) [Compound 109]	100	100	–
FC(F)(F)C1(c2cc(Cl)cc(Cl)c2)CC(c2ccc(-n3cncn3)nc2)=NO1 (racemic) [Compound 114]	100	100	–
FC(F)(F)c1cccc(C2(C(F)(F)F)CC(c3ccc(-n4cncn4)cc3)=NO2)c1 (racemic) [Compound 122]	100	100	–
FC(F)(F)c1ccc(C2(C(F)(F)F)CC(c3ccc(-n4cncn4)cc3)=NO2)cc1 (racemic) [Compound 123]	100	–	–
N#Cc1cc(C2=NOC(c3cccc(C(F)(F)F)c3)(C(F)(F)F)C2)ccc1-n1cncn1 (racemic) [Compound 126]	100	100	–
O=[N+]([O-])c1cc(C2=NOC(c3cccc(C(F)(F)F)c3)(C(F)(F)F)C2)ccc1-n1cncn1 (racemic) [Compound 127]	100	100	–
FC(F)(F)c1cc(C(F)(F)F)cc(C2(C(F)(F)F)CC(c3ccc(-n4cncn4)cc3)=NO2)c1 (racemic) [Compound 132]	100	100	–
FC(F)(F)c1cc(C(F)(F)F)cc(C2(C(F)(F)F)CC(c3ccc(-n4cncn4)c(Cl)c3)=NO2)c1 (racemic) [Compound 133]	100	–	–
FC(F)(F)c1cc(C(F)(F)F)cc(C2(C(F)(F)F)CC(c3ccc(-n4cncn4)c(Br)c3)=NO2)c1 (racemic) [Compound 134]	100	100	–
O=[N+]([O-])c1cc(C2=NOC(c3cc(C(F)(F)F)cc(C(F)(F)F)c3)(C(F)(F)F)C2)ccc1-n1cncn1 (racemic) [Compound 136]	100	100	–
O=[N+]([O-])c1cc(C2=NOC(c3cccc(Cl)c3)(C(F)(F)F)C2)ccc1-n1cnnn1 (racemic) [Compound 147]	–	100	–
FC(F)(F)C1(c2cc(Cl)cc(Cl)c2)CC(c2ccc(-n3cnnn3)c(Cl)c2)=NO1 (racemic) [Compound 150]	100	100	–
FC(F)(F)C1(c2cc(Cl)cc(Cl)c2)CC(c2ccc(-n3cccn3)cc2)=NO1 (stereo not shown) [Compound 2]	100	–	–
FC(F)(F)C1(c2cc(Cl)cc(Cl)c2)CC(c2ccc(-n3cc(Cl)cn3)cc2)=NO1 (stereo not shown) [Compound 4]	100	–	–

Compound	insecticidal ratio (Spodoptera litura larvae) [%]	insecticidal ratio (Aulacophora femoralis) [%]	pest or weed control at 500 ppm (Spodoptera litura larvae) [%]
FC(F)(F)C1(c2cc(Cl)cc(Cl)c2)CC(c2ccc(-n3cc(Br)cn3)cc2)=NO1 (stereo not shown) [Compound 5]	100	–	–
N#Cc1cnn(-c2ccc(C3=NOC(c4cc(Cl)cc(Cl)c4)(C(F)(F)F)C3)cc2)c1 (stereo not shown) [Compound 7]	100	–	–
FC(F)(F)C1(c2cc(Cl)cc(Cl)c2)CC(c2ccc(-n3cccn3)c(Cl)c2)=NO1 (stereo not shown) [Compound 8]	100	–	–
O=[N+]([O-])c1cnn(-c2ccc(C3=NOC(c4cc(Cl)cc(Cl)c4)(C(F)(F)F)C3)cc2Br)c1 (stereo not shown) [Compound 12]	100	–	–
N#Cc1cc(C2=NOC(c3cc(Cl)cc(Cl)c3)(C(F)(F)F)C2)ccc1-n1cccn1 (stereo not shown) [Compound 13, 5-[5-(3,5-dichlorophenyl)-5-(trifluoromethyl)-4,5-dihydroisoxazol-3-yl]-2-(1H-pyrazol-1-yl)benzonitrile]	–	–	100
N#Cc1cc(C2=NOC(c3cc(Cl)cc(Cl)c3)(C(F)(F)F)C2)ccc1-n1cc(F)cn1 (stereo not shown) [Compound 16]	100	–	–
N#Cc1cc(C2=NOC(c3cc(Cl)cc(Cl)c3)(C(F)(F)F)C2)ccc1-n1cc(Br)cn1 (stereo not shown) [Compound 18]	100	–	–
N#Cc1cc(C2=NOC(c3cc(Cl)cc(Cl)c3)(C(F)(F)F)C2)ccc1-n1cc(I)cn1 (stereo not shown) [Compound 19]	100	–	–
O=[N+]([O-])c1cc(C2=NOC(c3cc(Cl)cc(Cl)c3)(C(F)(F)F)C2)ccc1-n1cccn1 (stereo not shown) [Compound 23]	100	–	–
Cc1cnn(-c2ccc(C3=NOC(c4cc(Cl)cc(Cl)c4)(C(F)(F)F)C3)cc2[N+](=O)[O-])c1 (stereo not shown) [Compound 24]	100	–	–
O=[N+]([O-])c1cc(C2=NOC(c3cc(Cl)cc(Cl)c3)(C(F)(F)F)C2)ccc1-n1cc(Cl)cn1 (stereo not shown) [Compound 26]	100	–	–
O=[N+]([O-])c1cc(C2=NOC(c3cc(Cl)cc(Cl)c3)(C(F)(F)F)C2)ccc1-n1cc(Br)cn1 (stereo not shown) [Compound 27]	100	–	–
O=[N+]([O-])c1cc(C2=NOC(c3cc(Cl)cc(Cl)c3)(C(F)(F)F)C2)ccc1-n1cc(I)cn1 (stereo not shown) [Compound 28]	100	–	–
O=[N+]([O-])c1cc(C2=NOC(c3cc(Cl)cc(Cl)c3)(C(F)(F)F)C2)ccc1-n1cc(C(F)(F)F)cn1 (stereo not shown) [Compound 29]	100	–	–
N#Cc1cc(C2=NOC(c3cc(C(F)(F)F)cc(C(F)(F)F)c3)(C(F)(F)F)C2)ccc1-n1cc([N+](=O)[O-])cn1 (stereo not shown) [Compound 47]	100	–	–
FC(F)(F)C1(c2cc(Cl)cc(Cl)c2)CC(c2ccc(-n3ccnc3)cc2)=NO1 (stereo not shown) [Compound 48]	100	–	–
O=[N+]([O-])c1cc(C2=NOC(c3cc(Cl)cc(Cl)c3)(C(F)(F)F)C2)ccc1-n1ccnc1 (stereo not shown) [Compound 52]	100	–	–
O=[N+]([O-])c1cc(C2=NOC(c3cc(Cl)cc(Cl)c3)(C(F)(F)F)C2)ccc1-n1ccnn1 (stereo not shown) [Compound 64]	–	100	–
O=[N+]([O-])c1cc(C2=NOC(c3cc(Cl)cc(Cl)c3)(C(F)(F)F)C2)ccc1-n1nccn1 (stereo not shown) [Compound 72]	100	–	–
N#Cc1cc(C2=NOC(c3ccccc3)(C(F)(F)F)C2)ccc1-n1cncn1 (stereo not shown) [Compound 80]	–	100	–
O=[N+]([O-])c1cc(C2=NOC(c3cc(F)cc(F)c3)(C(F)(F)F)C2)ccc1-n1cncn1 (stereo not shown) [Compound 85]	–	100	–
Nc1cc(C2=NOC(c3cc(Cl)cc(Cl)c3)(C(F)(F)F)C2)ccc1-n1cncn1 (stereo not shown) [Compound 105, 5-[5-(3,5-dichlorophenyl)-5-(trifluoromethyl)-4,5-dihydroisoxazol-3-yl]-2-(1H-1,2,4-triazol-1-yl)aniline]	–	–	100
FC(F)(F)C1(c2cc(Cl)cc(Cl)c2)CC(c2ccc(-n3cnnc3)cc2)=NO1 (stereo not shown) [Compound 141, 4-{4-[5-(3,5-dichlorophenyl)-5-(trifluoromethyl)-4,5-dihydroisoxazol-3-yl]phenyl}-4H-1,3,4-triazole]	–	–	100
FC(F)(F)C1(c2cc(Cl)cc(Cl)c2)CC(c2ccc(-n3cnnn3)c(I)c2)=NO1 (stereo not shown) [Compound 152]	100	–	–
FC(F)(F)c1cc(C(F)(F)F)cc(C2(C(F)(F)F)CC(c3ccc(-n4cnnn4)cc3)=NO2)c1 (stereo not shown) [Compound 162]	100	–	–
O=[N+]([O-])c1cc(C2=NOC(c3cccc(C(F)(F)F)c3)(C(F)(F)F)C2)ccc1-n1ncnn1 (stereo not shown) [Compound 176]	100	–	–
